Measurements taken from ChEMBL document CHEMBL1201862, “PubChem BioAssay data set” (2004).
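The compound was tested at five concentrations on cells cultured in 96-well plates, with a 48-hour exposure period. GI50: concentration for 50% inhibition of growth.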 Activity calls are given as the source filed them. Cut-off read from the data, not from the text of the source: active = GI50 up to about 1.1 µM and inactive = higher.

Experiments:
Test in all cases: NCI anticancer screen, dose series, 48 h
ACHN = system: ACHN
COLO 205 = system: COLO 205
HCT-116 = system: HCT-116
K562 = system: K562
KM12 = system: KM12
M14 = system: M14
NCI-H23 = system: NCI-H23
NCI-H522 = system: NCI-H522
OVCAR-5 = system: OVCAR-5
OVCAR-8 = system: OVCAR-8
SF-268 = system: SF-268
SF-295 = system: SF-295
SK-MEL-28 = system: SK-MEL-28
SK-MEL-2 = system: SK-MEL-2
SR = system: SR
LOX IMVI = system: LOX IMVI
RXF 393 = system: RXF 393

Measured: GI50

Cc1cccc(C)c1NC(=O)CCCC(=O)C1/C(=N/NC(=O)CC#N)CCC/C1=N\NC(=O)CC#N (stereo not drawn)
inactive: ACHN > 100 µM | COLO 205 > 100 µM | HCT-116 > 100 µM | K562 > 100 µM | KM12 > 100 µM | M14 > 100 µM | NCI-H23 > 100 µM | NCI-H522 > 100 µM | OVCAR-5 > 100 µM | OVCAR-8 > 100 µM | SF-268 > 100 µM | SF-295 > 100 µM | SK-MEL-28 > 100 µM | SK-MEL-2 > 100 µM | SR > 100 µM

O=C1CC23CC(=O)CC2(C1)c1ccccc1C3=O (stereo not drawn)
inactive: ACHN > 100 µM | COLO 205 > 100 µM | HCT-116 > 100 µM | K562 > 100 µM | KM12 > 100 µM | LOX IMVI > 100 µM | M14 > 100 µM | NCI-H23 > 100 µM | NCI-H522 > 100 µM | OVCAR-5 > 100 µM | OVCAR-8 > 100 µM | RXF 393 40.6 µM | SF-268 > 100 µM | SF-295 > 100 µM | SK-MEL-28 > 100 µM | SK-MEL-2 > 100 µM

CC(C)(C)OC1=C(OC(C)(C)C)C(O)(c2ccc(Cl)cc2)C1=O (stereo not drawn)
inactive: ACHN > 100 µM | COLO 205 > 100 µM | K562 > 100 µM | KM12 > 100 µM | LOX IMVI > 100 µM | M14 > 100 µM | NCI-H23 > 100 µM | OVCAR-5 > 100 µM | OVCAR-8 > 100 µM | RXF 393 > 100 µM | SF-268 > 100 µM | SF-295 > 100 µM | SK-MEL-28 > 100 µM | SR > 100 µM

O=C(NCCCN1CCN(CCCNC(=O)c2cccc3ccccc23)CC1)c1cccc2ccccc12
inactive: ACHN > 100 µM | COLO 205 > 100 µM | HCT-116 39.1 µM | K562 41.4 µM | KM12 > 100 µM | LOX IMVI > 100 µM | M14 > 100 µM | NCI-H23 57.8 µM | OVCAR-5 > 100 µM | OVCAR-8 > 100 µM | SF-295 54.8 µM | SK-MEL-2 > 100 µM

CN(C)CCn1c2ccccc2c2nc3cc4ccccc4cc3nc21
inactive: ACHN 2.48 µM | COLO 205 1.87 µM | HCT-116 3.79 µM | K562 2.92 µM | KM12 3.74 µM | LOX IMVI 3.18 µM | M14 4.1 µM | NCI-H23 8.91 µM | NCI-H522 5.79 µM | OVCAR-8 5.9 µM | RXF 393 11 µM | SF-268 2.14 µM | SF-295 4.05 µM | SK-MEL-28 9.23 µM | SK-MEL-2 11.1 µM

Cc1cc2c3ccccc3n(C)c2c2c1C(=O)c1ccccc1C2=O
inactive: COLO 205 21.1 µM | HCT-116 14.8 µM | K562 20.4 µM | KM12 28.2 µM | M14 19.1 µM | NCI-H23 15.6 µM | NCI-H522 16.7 µM | OVCAR-8 19.2 µM | SF-268 25 µM | SF-295 13.6 µM | SK-MEL-28 18.6 µM | SK-MEL-2 20 µM | SR 6.24 µM

CCCCC/C=C1\CCC(CN(C)C)C1=O (stereo not drawn)
inactive: ACHN 13.9 µM | COLO 205 8.99 µM | HCT-116 11.8 µM | K562 1.94 µM | KM12 4.8 µM | LOX IMVI 6.79 µM | M14 14.1 µM | NCI-H23 17.7 µM | NCI-H522 4.06 µM | OVCAR-5 18.6 µM | OVCAR-8 > 21.5 µM | SF-268 19.1 µM | SF-295 20 µM | SK-MEL-28 9.89 µM | SK-MEL-2 19.9 µM | SR 3.79 µM

CC#Cc1c(C#CC)c(OC)c2c(c1OC)C(=O)c1ccccc1C2=O
inactive: ACHN 14.3 µM | COLO 205 > 100 µM | HCT-116 15.9 µM | K562 > 100 µM | KM12 > 100 µM | LOX IMVI > 100 µM | M14 33.6 µM | NCI-H23 29.8 µM | NCI-H522 3.15 µM | OVCAR-5 > 100 µM | OVCAR-8 66.5 µM | RXF 393 10.7 µM | SF-268 25.7 µM | SF-295 13.3 µM | SK-MEL-28 > 100 µM | SK-MEL-2 38.5 µM | SR 46.6 µM

NNC(=S)N/N=C(/C(=O)Nc1cc(Cl)ccc1Cl)C1C(=O)Nc2ccccc2[S+]1[O-] (stereo not drawn)
inactive: ACHN > 100 µM | COLO 205 > 100 µM | HCT-116 > 100 µM | K562 > 100 µM | KM12 > 100 µM | LOX IMVI > 100 µM | M14 > 100 µM | NCI-H23 > 100 µM | NCI-H522 68.9 µM | OVCAR-5 > 100 µM | OVCAR-8 > 100 µM | RXF 393 > 100 µM | SF-268 > 100 µM | SF-295 > 100 µM | SK-MEL-28 > 100 µM | SK-MEL-2 > 100 µM | SR 94.2 µM

CCCCCCCc1cc(OC(=O)c2c(C)cc(OC)cc2O)cc(O)c1C(=O)O
inactive: ACHN 24.7 µM | COLO 205 20.7 µM | K562 33.9 µM | KM12 23.1 µM | LOX IMVI 21.3 µM | M14 21.3 µM | NCI-H23 20.3 µM | NCI-H522 23.8 µM | OVCAR-5 16.6 µM | OVCAR-8 27.1 µM | RXF 393 22 µM | SF-268 20.2 µM | SF-295 19.3 µM | SK-MEL-28 20.1 µM | SK-MEL-2 19.1 µM

Cc1c(CCl)c(=O)oc2c(C)c3occ(CCl)c(=O)c3cc12
inactive: ACHN > 100 µM | COLO 205 16 µM | K562 6.43 µM | KM12 > 100 µM | LOX IMVI 14.9 µM | M14 17 µM | NCI-H23 31.6 µM | NCI-H522 13.4 µM | OVCAR-5 > 100 µM | OVCAR-8 > 100 µM | RXF 393 15.7 µM | SF-268 24.7 µM | SF-295 > 100 µM | SK-MEL-28 17.5 µM | SK-MEL-2 > 100 µM

CCN1CCC(O)(c2ccc(OC)cc2)C(C(=O)c2ccc(OC)cc2)C1 (stereo not drawn)
inactive: ACHN 16.4 µM | COLO 205 22.9 µM | HCT-116 22.8 µM | K562 26.1 µM | KM12 20.5 µM | LOX IMVI 20 µM | M14 15.7 µM | NCI-H23 17.7 µM | NCI-H522 1.97 µM | OVCAR-5 18.4 µM | OVCAR-8 22.3 µM | SF-268 20.6 µM | SF-295 > 100 µM | SK-MEL-28 3.25 µM | SK-MEL-2 19.6 µM | SR 22.7 µM

CC(C)N(C(=O)C12C3C4C1C1C2C3C41C#N)C(C)C (stereo not drawn)
inactive: ACHN > 100 µM | COLO 205 > 100 µM | HCT-116 > 100 µM | K562 > 69.2 µM | KM12 > 100 µM | LOX IMVI > 47.1 µM | M14 > 100 µM | NCI-H23 > 100 µM | NCI-H522 > 87.1 µM | OVCAR-5 > 100 µM | OVCAR-8 > 100 µM | RXF 393 > 100 µM | SF-268 > 100 µM | SF-295 > 100 µM | SK-MEL-28 > 100 µM | SK-MEL-2 > 100 µM | SR 20.2 µM

C[C@H]1CCC2C(CN3CCCCC3)C(=O)OC2[C@]2(C)C(=O)CC(N3CCCCC3)C12O (stereo partly drawn)
inactive: ACHN 2.8 µM | COLO 205 4.69 µM | HCT-116 2.94 µM | K562 2.4 µM | KM12 3.09 µM | NCI-H23 4.3 µM | NCI-H522 1.38 µM | OVCAR-5 10.7 µM | OVCAR-8 1.79 µM | RXF 393 1.86 µM | SF-268 6.95 µM | SF-295 9.1 µM | SK-MEL-28 4.18 µM | SK-MEL-2 10.7 µM | SR 2.49 µM

C=C1CC(c2ccc(O)c(OC)c2)Oc2c(OC)cccc21 (stereo not drawn)
inactive: ACHN 47.4 µM | COLO 205 > 100 µM | HCT-116 31.2 µM | K562 19.7 µM | KM12 33.7 µM | M14 34 µM | NCI-H23 32.9 µM | NCI-H522 10.7 µM | OVCAR-5 65.5 µM | OVCAR-8 31.1 µM | SF-268 33 µM | SF-295 80.5 µM | SK-MEL-28 43.5 µM | SR 19.7 µM

C/C=C/C=N/N(C(=O)c1cc([N+](=O)[O-])cc([N+](=O)[O-])c1)C1=NN=C(c2ccccc2)C(c2ccccc2)N1 (stereo not drawn)
inactive: ACHN 97.5 µM | COLO 205 30.5 µM | HCT-116 30.2 µM | K562 52.8 µM | KM12 46.2 µM | LOX IMVI 78.5 µM | M14 33.3 µM | NCI-H23 26.9 µM | NCI-H522 21.4 µM | OVCAR-5 > 100 µM | OVCAR-8 89.9 µM | RXF 393 > 100 µM | SF-268 47.2 µM | SF-295 94.6 µM | SK-MEL-28 97.7 µM | SK-MEL-2 74 µM

COc1ccc(C2=C3c4cc(OC)c(OC)cc4CCN3C(=S)SS2)cc1OC
inactive: ACHN 54.8 µM | COLO 205 > 100 µM | HCT-116 > 100 µM | K562 71 µM | KM12 66.7 µM | LOX IMVI 40.8 µM | M14 98.2 µM | NCI-H23 50.7 µM | NCI-H522 50.1 µM | OVCAR-5 > 100 µM | OVCAR-8 > 100 µM | RXF 393 92.3 µM | SF-268 72.1 µM | SF-295 > 100 µM | SK-MEL-28 70.6 µM | SK-MEL-2 57 µM

CCOC(=O)Cc1csc(Nc2ccc(OCC)cc2)n1
inactive: ACHN > 100 µM | COLO 205 > 100 µM | HCT-116 > 100 µM | K562 92.7 µM | KM12 > 100 µM | NCI-H23 50.7 µM | NCI-H522 > 100 µM | OVCAR-8 > 100 µM | RXF 393 > 100 µM | SF-268 > 100 µM | SF-295 > 100 µM | SK-MEL-28 > 100 µM | SK-MEL-2 > 100 µM | SR 73.8 µM
